From PMC5315687 (ACS chemical biology, 2017)

Biological target: T1, His6-MibD (Microbispora sp. ATCC PTA-5024, UniProt W2ESX4)
T1 sequence (W2ESX4 1-215): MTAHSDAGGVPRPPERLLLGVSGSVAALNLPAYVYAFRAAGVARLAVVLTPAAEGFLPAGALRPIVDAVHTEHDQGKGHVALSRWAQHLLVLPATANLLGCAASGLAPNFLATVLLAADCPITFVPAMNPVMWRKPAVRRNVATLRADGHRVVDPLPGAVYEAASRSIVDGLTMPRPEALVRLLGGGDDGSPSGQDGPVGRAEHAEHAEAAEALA
Assay: flavin isolated from heat-denatured protein, MALDI-TOF MS
Format: binding
Conditions: non-covalent, co-purified

Q: For Cc1cc2nc3c(=O)[nH]c(=O)nc-3n(C[C@H](O)[C@H](O)[C@H](O)COP(=O)(O)OP(=O)(O)OC[C@H]3O[C@@H](n4cnc5c(N)ncnc54)[C@H](O)[C@@H]3O)c2cc1C [FAD], which “flavin isolated from heat-denatured protein, MALDI-TOF MS” value is on record?
A: The isolation of FAD from His6-MibD suggests the cofactor is not covalently linked.
